Experimental data published in ChEMBL document CHEMBL3045977, “Antidiabetic and antioxidant activity of hydroxycinnamic acids from Calamintha Officinalis Moench” (2012).

Experiments:
Format in all cases: functional
Rattus norvegicus [1] = test: Antidiabetic activity in alloxan-induced diabetic Rattus norvegicus albino Wistar (rat) model assessed as TBRAS level per gram of liver tissue at 10 mg/kg, po administered for 14 days measured after 14 days (reference value: 0.72 +/-0.12 uM/g)
Rattus norvegicus [2] = test: Antidiabetic activity in alloxan-induced diabetic Rattus norvegicus albino Wistar (rat) model assessed as change in body weight at 10 mg/kg, po administered for 14 days measured on day 14 (reference value: 190.6 +/-1.78 g)
Rattus norvegicus [3] = test: Antidiabetic activity in alloxan-induced diabetic Rattus norvegicus albino Wistar (rat) model assessed as change in body weight at 10 mg/kg, po administered for 14 days measured on day 1 (reference value: 205.4 +/-2.68 g)
Rattus norvegicus [4] = test: Antidiabetic activity in alloxan-induced diabetic Rattus norvegicus albino Wistar (rat) model assessed as reduction in VLDL level at 10 mg/kg, po administered for 14 days measured on day 14 (reference value: 29.9 +/- 0.83 mg/dl)
Rattus norvegicus [5] = test: Antidiabetic activity in alloxan-induced diabetic Rattus norvegicus albino Wistar (rat) model assessed as reduction in VLDL level at 10 mg/kg, po administered for 14 days measured on day 1 (reference value: 14.4 +/- 1.04 mg/dl)
Rattus norvegicus [6] = test: Antidiabetic activity in alloxan-induced diabetic Rattus norvegicus albino Wistar (rat) model assessed as reduction in LDL level at 10 mg/kg, po administered for 14 days measured on day 14 (reference value: 68.2 +/- 2.10 mg/dl)
Rattus norvegicus [7] = test: Antidiabetic activity in alloxan-induced diabetic Rattus norvegicus albino Wistar (rat) model assessed as reduction in LDL level at 10 mg/kg, po administered for 14 days measured on day 1 (reference value: 52.4 +/- 2.32 mg/dl)
Rattus norvegicus [8] = test: Antidiabetic activity in alloxan-induced diabetic Rattus norvegicus albino Wistar (rat) model assessed as reduction in HDL level at 10 mg/kg, po administered for 14 days measured on day 14 (reference value: 36.4 +/- 1.05 mg/dl)
Rattus norvegicus [9] = test: Antidiabetic activity in alloxan-induced diabetic Rattus norvegicus albino Wistar (rat) model assessed as reduction in HDL level at 10 mg/kg, po administered for 14 days measured on day 1 (reference value: 40.1 +/- 2.11 mg/dl)
Rattus norvegicus [10] = test: Antidiabetic activity in alloxan-induced diabetic Rattus norvegicus albino Wistar (rat) model assessed as reduction in total cholesterol level at 10 mg/kg, po administered for 14 days measured on day 14 (reference value: 131.2 +/- 0.48 mg/dl)
Rattus norvegicus [11] = test: Antidiabetic activity in alloxan-induced diabetic Rattus norvegicus albino Wistar (rat) model assessed as reduction in total cholesterol level at 10 mg/kg, po administered for 14 days measured on day 1 (reference value: 98.6 +/- 0.51 mg/dl)
Rattus norvegicus [12] = test: Antidiabetic activity in alloxan-induced diabetic Rattus norvegicus albino Wistar (rat) model assessed as reduction in triglyceride level at 10 mg/kg, po administered for 14 days measured on day 14 (reference value: 210.8 +/- 1.25 mg/dl)
Rattus norvegicus [13] = test: Antidiabetic activity in alloxan-induced diabetic Rattus norvegicus albino Wistar (rat) model assessed as reduction in triglyceride level at 10 mg/kg, po administered for 14 days measured on day 1 (reference value: 158.9 +/- 1.23 mg/dl)
Rattus norvegicus [14] = test: Antidiabetic activity in alloxan-induced diabetic Rattus norvegicus albino Wistar (rat) model assessed as reduction in blood glucose level at 10 mg/kg, po administered for 14 days measured on day 14 (reference value: 248.6 +/- 1.20 mg/dl)
Rattus norvegicus [15] = test: Antidiabetic activity in alloxan-induced diabetic Rattus norvegicus albino Wistar (rat) model assessed as reduction in blood glucose level at 10 mg/kg, po administered for 14 days measured on day 1 (reference value: 242.2 +/- 0.71 mg/dl)

Structure (SMILES) | Activity (Rattus norvegicus [1]) [µM] | Activity (Rattus norvegicus [2]) [g] | Activity (Rattus norvegicus [3]) [g] | Activity (Rattus norvegicus [4]) [mg/dL] | Activity (Rattus norvegicus [5]) [mg/dL] | Activity (Rattus norvegicus [6]) [mg/dL] | Activity (Rattus norvegicus [7]) [mg/dL] | Activity (Rattus norvegicus [8]) [mg/dL] | Activity (Rattus norvegicus [9]) [mg/dL] | Activity (Rattus norvegicus [10]) [mg/dL] | Activity (Rattus norvegicus [11]) [mg/dL] | Activity (Rattus norvegicus [12]) [mg/dL] | Activity (Rattus norvegicus [13]) [mg/dL] | Activity (Rattus norvegicus [14]) [mg/dL] | Activity (Rattus norvegicus [15]) [mg/dL]
O=C(O)/C=C/c1ccc(O)c(O)c1 [CAFFEIC ACID] | 0.56 | 246 | 209.3 | 20.9 | 15 | 41 | 53.7 | 41.4 | 38.2 | 60.6 | 101.2 | 103.2 | 160.4 | 105.4 | 239
COc1ccc(Cl)cc1C(=O)NCCc1ccc(S(=O)(=O)NC(=O)NC2CCCCC2)cc1 [GLYBURIDE] | 0.45 | 250.5 | 207.6 | 20.1 | 14 | 36.4 | 50 | 45.7 | 39.7 | 58.6 | 98.1 | 102.5 | 161.6 | 115.1 | 240
O=C(/C=C/c1ccc(O)c(O)c1)O[C@H](Cc1ccc(O)c(O)c1)C(=O)O [ROSMARINIC ACID] | 0.5 | 249.5 | 206.8 | 21.7 | 14.2 | 42.3 | 51.3 | 50.2 | 41.2 | 57.2 | 100.1 | 100.5 | 157.6 | 97.3 | 244.1
